“And” between values parts separate entries of the source, which are not always exact repeats. Equal values may be shown once.
Legend:
MRSA ATCC 43300 = test: MIC, drug susceptibility assay; assay type: cell-based, Staphylococcus aureus; conditions: 18 h; for MRSA ATCC 43300 MIC: 37 °C, visual inspection
MSSA ATCC 25923 = test: MIC, drug susceptibility assay; assay type: cell-based, Staphylococcus aureus; conditions: 18 h, 37 °C, visual inspection
Vero cells = assay type: cell-based; conditions: 72 h; for CC50: read-out: Vero cell CC50
[1] = system: JSF-3151–resistant strains; test: MIC versus JSF-3151-resistant strains compared to the parental strain; assay type: cell-based, Staphylococcus aureus
MRSA COL strain = test: Mouse peritonitis-sepsis model; assay type: in vivo, Staphylococcus aureus; conditions: single dose 100 mg/kg subcutaneous
S. aureus = conditions: 8x MIC; ref [13], [35]–[36]; cited from earlier work

CN(C)c1nnc(-c2ccc(NC(=O)c3ccc([N+](=O)[O-])o3)cc2)o1 [JSF-3157]
MRSA ATCC 43300 MIC (MRSA ATCC 43300; listed as Z1542057255 (3157)): 6.2 μg/mL and 18 μM
MSSA ATCC 25923 MIC (MSSA ATCC 25923; listed as Z1542057255 (3157)): 6.2 μg/mL and 18 μM
Vero cell CC50 (Vero cells): 0.78 µg/mL
CC50 (Vero cells): 2 µM

CC(=O)N1CCN(c2cc3c(cc2F)c(=O)c(C(=O)N2CCCc4ccccc42)cn3C2CC2)CC1 [JSF-3145]
MRSA ATCC 43300 MIC (MRSA ATCC 43300; listed as Z27692293 (3145)): 12 μg/mL and 25 μM
MSSA ATCC 25923 MIC (MSSA ATCC 25923; listed as Z27692293 (3145)): 12 μg/mL and 25 μM
Vero cell CC50 (Vero cells): > 50 µg/mL
CC50 (Vero cells): > 100 µM

CC1(C)S[C@@H]2[C@H](NC(=O)[C@H](N)c3ccccc3)C(=O)N2[C@H]1C(=O)O [Ampicillin]
MIC versus JSF-3151–resistant strains compared to parental strain [1]: same MIC

O=C(Nc1cccc(N2CCOC2=O)c1)c1ccc([N+](=O)[O-])o1 [JSF-3153]
MRSA ATCC 43300 MIC (MRSA ATCC 43300; listed as Z364195972 (3153)): 3.1 μg/mL and 10 μM
MSSA ATCC 25923 MIC (MSSA ATCC 25923; listed as Z364195972 (3153)): 6.2 μg/mL and 20 μM
Vero cell CC50 (Vero cells): 1.6 µg/mL
CC50 (Vero cells): 5 µM

CC[C@H]1OC(=O)[C@H](C)[C@@H](O[C@H]2C[C@@](C)(OC)[C@@H](O)[C@H](C)O2)[C@H](C)[C@@H](O[C@@H]2O[C@H](C)C[C@H](N(C)C)[C@H]2O)[C@](C)(O)C[C@@H](C)C(=O)[C@H](C)[C@@H](O)[C@]1(C)O [erythromycin]
MIC versus JSF-3151–resistant strains compared to parental strain [1]: same MIC

CO[C@H]1/C=C/O[C@@]2(C)Oc3c(C)c(O)c4c(O)c(c(/C=N/N5CCN(C)CC5)c(O)c4c3C2=O)NC(=O)/C(C)=C\C=C\[C@H](C)[C@H](O)[C@@H](C)[C@@H](O)[C@@H](C)[C@H](OC(C)=O)[C@@H]1C [Rifampicin]
MIC versus JSF-3151–resistant strains compared to parental strain [1]: same MIC

Nc1ccc(C(=O)Nc2cc(Cl)cc3cccnc23)s1 [JSF-3640, 5-amino-N-(6-chloroquinolin-8-yl)thiophene-2-carboxamide]
MIC (MRSA ATCC 43300; Staphylococcus aureus, ATCC43300|MRSA, read-out: MRSA ATCC 43300 MIC): > 50 µg/mL

CN[C@H](CC(C)C)C(=O)N[C@H]1C(=O)N[C@@H](CC(N)=O)C(=O)N[C@H]2C(=O)N[C@H]3C(=O)N[C@H](C(=O)N[C@H](C(=O)O)c4cc(O)cc(O)c4-c4cc3ccc4O)[C@H](O)c3ccc(c(Cl)c3)Oc3cc2cc(c3O[C@@H]2O[C@H](CO)[C@@H](O)[C@H](O)[C@H]2O[C@H]2C[C@](C)(N)[C@H](O)[C@H](C)O2)Oc2ccc(cc2Cl)[C@H]1O [vancomycin]
mice surviving 3 d post-administration (MRSA COL strain): 12/12
MIC versus JSF-3151–resistant strains compared to parental strain [1]: same MIC
resistance frequency (S. aureus): 1 x 10^−9 to 1 x 10^−6

O=C(O)c1cn(C2CC2)c2cc(N3CCNCC3)c(F)cc2c1=O [ciprofloxacin]
resistance frequency (S. aureus): 1 x 10^−9 to 1 x 10^−6

C[C@H]1c2cccc(O)c2C(=O)C2=C(O)[C@]3(O)C(=O)C(C(N)=O)=C(O)[C@@H](N(C)C)[C@@H]3[C@@H](O)[C@@H]21 [Doxycycline]
MIC versus JSF-3151–resistant strains compared to parental strain [1]: same MIC

CC(=O)NC[C@H]1CN(c2ccc(N3CCOCC3)c(F)c2)C(=O)O1 [linezolid]
resistance frequency (S. aureus): 1 x 10^−9 to 1 x 10^−6

— article PMC8591627 (ACS infectious diseases, 2021)
